Consider ten compounds from EP1431280A1, “ARYL SULFAMATE DERIVATIVES” (Kyowa Hakko Kogyo Co., Ltd, priority 2001, dated 2003).

The term IC50 denotes the midpoint of a concentration-inhibition curve.

For the test, the target named is T1, recombinant human estrone sulfatase (Homo sapiens, UniProt P08842).
T1 construct: made in house; host or cells: Chinese Hamster Ovary (CHO) cells
T1 sequence (P08842 22-583): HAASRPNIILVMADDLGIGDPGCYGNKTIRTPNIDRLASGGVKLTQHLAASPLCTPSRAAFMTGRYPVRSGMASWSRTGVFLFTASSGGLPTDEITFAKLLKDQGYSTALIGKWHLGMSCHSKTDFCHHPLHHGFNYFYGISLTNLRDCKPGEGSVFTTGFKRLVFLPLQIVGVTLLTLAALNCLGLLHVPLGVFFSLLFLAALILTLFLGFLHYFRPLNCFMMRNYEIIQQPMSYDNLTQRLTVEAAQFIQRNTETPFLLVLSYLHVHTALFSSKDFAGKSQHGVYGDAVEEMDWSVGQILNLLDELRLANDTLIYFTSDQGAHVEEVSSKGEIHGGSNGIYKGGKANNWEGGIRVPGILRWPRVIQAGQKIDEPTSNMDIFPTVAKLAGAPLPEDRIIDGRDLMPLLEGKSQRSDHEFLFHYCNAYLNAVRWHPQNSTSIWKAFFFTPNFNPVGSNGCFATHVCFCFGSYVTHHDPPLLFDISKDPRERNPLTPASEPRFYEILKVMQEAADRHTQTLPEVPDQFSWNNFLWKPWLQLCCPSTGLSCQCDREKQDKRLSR
Kind of test: Test for inhibition of estrone sulfatase (steroid sulfatase). In kind it is biochemical. The note with it: 4-methylumbelliferyl sulfate 0.3 mmol/L, phosphate buffer pH 7.5, 37 °C, 1 hour, fluorescence of 4-methylumbelliferone; read-out: IC50, inhibitory activity against steroid sulfatase. The method, then: 4-Methylumbelliferyl sulfate (final concentration 0.3 mmol/L), recombinant human estrone sulfatase (7.8 ng/well), and each solution of the test compound having each test concentrations (test compound was dissolved in 0.001 mL of DMSO) were added to a phosphate buffer (pH 7.5) (final volume 0.1 mL) containing 0.28 mol/L sucrose and 0.04 mol/L nicotinamide. An enzyme reaction was conducted at 37 °C for 1 hour. The human estrone sulfatase gene was introduced into Chinese Hamster Ovary (CHO) cells, and the recombinant human estrone sulfatase was expressed, then it was used after partial purification. After completing the enzyme reaction, 2 mol/L glycine-sodium hydroxide solution (pH 10.3) (0.13 mL) was added and stirred. Using a fluorescent plate reader (Cyto Fluor II), the fluorescent strength of the generated 4-methylumbelliferone was measured. The measurements were conducted in duplicate at the same time. The fluctuations within the assay were within 10%. An enzyme reaction without the presence of a test compound was conducted at the same time. The inhibitory activity against estrone sulfatase for each concentration of the test compounds was calculated using the following equation. • A: Amount of 4-methylumbelliferone when test compound is present • B: Amount of 4-methylumbelliferone when test compound is not present [formula]
The inhibitory activity against estrone sulfatase of the aryl sulfamate derivative can be expressed as the concentration (IC50) of aryl sulfamate derivative at which the estrone sulfatase activity in the presence of the aryl sulfamate derivative is half of that when no test compound is added.
`CCCCCCCCCNC(=O)C(C#N)=Cc1ccc(OS(N)(=O)=O)cc1` [Compound 5]: the IC50 was 14 nM. As for `CCCCCCCNC(=O)C(C#N)=Cc1ccc(OS(N)(=O)=O)cc1` [Compound 6], the figure is 12 nM; as for `CCCCCCCCNC(=O)/C(C#N)=C(\C)c1ccc(OS(N)(=O)=O)cc1` [Compound 15], less than 12 nM.

On to `CCCCCCCNC(=O)C(C#N)=C(C)c1ccc(OS(N)(=O)=O)cc1` [Compound 16], for which the IC50 is less than 12 nM. As for `CCCCCCCCCNC(=O)C(C#N)=C(CC)c1ccc(OS(N)(=O)=O)cc1` [Compound 17], the figure is 17 nM; as for `CCCCCCCCCNC(=O)C(C#N)=C(CF)c1ccc(OS(N)(=O)=O)cc1` [Compound 19], 35 nM. In the case of `CCCCCCCCCNC(=O)C(C#N)=C(O)c1ccc(OS(N)(=O)=O)cc1` [Compound 22], the IC50 was less than 12 nM. Next, `CCCCCCCCCNC(=O)C=C(C#N)c1ccc(OS(N)(=O)=O)cc1` [Compound 47]: 44 nM; `CCCCCCCCCNC(=O)C#Cc1ccc(OS(N)(=O)=O)cc1` [Compound 57]: 99 nM.

In the case of `CCCCCCCCCNC(=O)CC(=O)c1ccc(OS(N)(=O)=O)cc1` [Compound 58], the IC50 was 31 nM.
